Reference: US8932563B2, “Higher loading zinc-containing films” (Colgate-Palmolive Company, priority 2009, dated 2015)

Test: Zinc uptake from toothpaste onto artificial soft substrate
Assay type: in vitro ADME
Details: for zinc uptake, ppm: Vitro-Skin incubated 1 hour, 1:2 dilution
Protocol: Zinc uptake experiments were performed to compare the amount of zinc delivered to an artificial soft substrate using the same level of zinc oxide films in toothpaste with different loadings. The films (Zn30 and Zn50) were incorporated into a MaxFresh Nite toothpaste base. The experiments included comparing:
Certain parameters for testing were kept constant for the experiments. They included:
Vitro-Skin incubated for 1 hour
1:2 dilution of toothpaste to deionized water
Two 5 mL washes of deionized water for 10 seconds
There also was an increase in binding with an increase in film concentration. The zinc uptake method quantifies the amount of zinc delivered to a soft substrate. Vitro-Skin was used as a model substrate because it mimics human skin. […] Also the films act as a delivery vehicle to deposit more zinc onto the substrate than its equivalent in powder form.

[1] = 1.0% film or powder in toothpaste

With `[O-2].[Zn+2]` [ZnO Powder, Zinc Oxide] the “zinc uptake, μg/cm^2” value (0.15% powder in toothpaste) was 5.7 μg/cm^2, the “zinc uptake, ppm” value (0.15% powder in toothpaste) was 2.05 ppm and the “zinc uptake, μg/cm^2” value [1] was 21.5 μg/cm^2. The “zinc uptake, ppm” value [1] was 59.7 ppm.
